Experiment [1] addresses T1, mevalonate kinase (MK) (Streptococcus pneumoniae, UniProt A0A0H2UNK6). The experiment is described as follows: Initial-rate inhibition of S. pneumoniae mevalonate kinase. In kind it is biochemical. The protocol:
Regulation of the isoprenoid biosynthetic pathway in S. pneumoniae was discovered during an attempt to enzymatically synthesize DPM from ATP and mevalonate using MK and PMK. Individually, either enzyme is capable of quantitative conversion of substrate to product. However, when the enzymes are added simultaneously, the forward reaction decelerates rapidly and little product is formed. […] Thus, this nearly pure noncompetitive inhibitor binds at a site that is physically distinct from the substrate binding sites—an allosteric site. […] The stoichiometry was confirmed by NMR titration. […] Down-regulation of this pathway is quite specific for DPM.
(§1) The findings that mevalonate-pathway S. pneumoniae mutants cannot survive in mouse lung or serum validated this pathway as an antibiotic target in animal models. Acting on the hypothesis that the primary sequence differences of the mammalian and streptococcal MKs might produce different DPM-inhibition characteristics, the human enzyme was cloned, expressed, purified and tested for DPM inhibition. The effect of DPM on the initial rate of the human and streptococcal enzymes was assessed using samples with matched catalytic poise ([substrates]˜Km, equivalent Vm).
(§2) Several compounds were designed to inhibit DPM-DC and control cholesterol biosynthesis. In one such compound, each of the C6-methyl protons of mevalonate are replaced with fluorine (6,6,6-trifluoromevalonate, F3-mev). Given DPM inhibition of MK, and excellent inhibition of rat liver DPM-DC by F3-DPM (Ki=0.5 μM) it was hoped that F3-DPM might inhibit both MK and DPM-DC from S. pneumoniae, and, if so, be used as a bacteriostatic or bacteriocidal agent. […] Encouraged, F3-DPM was tested as an antibiotic against S. pneumoniae. To avoid the possible obstacles of phosphatase degradation of DPM and transporting a highly charged anion across the cell wall, a prodrug strategy that relies on conversion of F3-mev to F3-DPM in the cytosol was used. F3-mev conversion to F3-DPM and consequent inhibition of DPM-DC occurs in rat liver extracts. The linear and lactone forms of statins, which target an early step in the isoprenoid pathway, show widely different potencies; consequently, both forms of F3-mev were tested as inhibitors. Serial dilutions of F3-mev were added to Meuller-Hinton Broth, a horse-blood based medium, containing ˜7.5×10^7 cells of either an infectious (ATCC 49619) or non-infectious (R6) strain of S. pneumoniae. The cultures containing F3-mev were incubated for 24 hours at 35° C. and plated to assess viability. The linear form of F3-mev had little effect; confluent growth was observed on all plates; in contrast, the lactone is clearly a bacteriocide—less than 0.0001% of either strain survived at 100-200 μg/ml of the lactone. […]

Experiment [2] concerns the target T2, mammalian DPM decarboxylase (Homo sapiens, UniProt P53602).
T2 sequence (P53602 1-400): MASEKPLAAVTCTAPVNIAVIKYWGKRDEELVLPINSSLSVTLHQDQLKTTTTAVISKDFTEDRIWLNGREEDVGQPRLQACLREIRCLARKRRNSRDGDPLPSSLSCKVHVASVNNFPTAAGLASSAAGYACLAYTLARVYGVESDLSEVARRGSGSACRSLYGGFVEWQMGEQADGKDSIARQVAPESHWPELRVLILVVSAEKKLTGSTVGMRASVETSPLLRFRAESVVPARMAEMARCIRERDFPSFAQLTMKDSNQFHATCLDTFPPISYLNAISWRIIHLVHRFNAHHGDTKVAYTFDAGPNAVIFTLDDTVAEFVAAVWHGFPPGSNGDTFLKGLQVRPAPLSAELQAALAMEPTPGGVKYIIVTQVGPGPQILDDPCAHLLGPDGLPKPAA
To be noted: cited from earlier work; for Km: substrate of mammalian DPM decarboxylase.

The target in experiment [3] is T1, mevalonate kinase (MK). The experiment is described as follows: Equilibrium binding of DPM to MK.
Experiment [4] concerns the target T3, human mevalonate kinase (Homo sapiens, UniProt Q03426).
T3 construct: made in house
The conditions noted are these: background; cited from earlier work.

Experiment [5] has as its target T3, human mevalonate kinase. Briefly: DPM inhibition of human mevalonate kinase (initial rate). In kind it is biochemical. To be noted: at DPM concentrations that essentially completely inhibit the streptococcal system; [substrates]~Km. The protocol:
as §1

In experiment [6] the target is T4, DPM-DC (Streptococcus pneumoniae, UniProt A0A0H2UNP0).
T4 sequence (A0A0H2UNP0 1-317): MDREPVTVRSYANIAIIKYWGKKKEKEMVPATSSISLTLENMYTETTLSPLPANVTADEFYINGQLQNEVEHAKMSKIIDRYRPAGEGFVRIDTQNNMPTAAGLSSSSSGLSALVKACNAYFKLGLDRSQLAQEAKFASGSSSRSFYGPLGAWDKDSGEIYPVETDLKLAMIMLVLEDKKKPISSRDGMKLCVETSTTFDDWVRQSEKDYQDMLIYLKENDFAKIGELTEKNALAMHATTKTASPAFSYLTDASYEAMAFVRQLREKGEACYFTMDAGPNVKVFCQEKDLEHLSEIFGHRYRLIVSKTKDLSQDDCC
The experiment is described as follows: DPM binding to DPM-DC by intrinsic fluorescence. As to the method: FIG. 5. DPM Binding to DPM-DC. Conditions: DPM-DC (0.10 μM); MgCl2 (1.0 mM); β-Me (2.0 mM); KCl (50 mM); Glycerol (0.5% v/v); Hepes (50 mM, pH 8.0); T=25 (±2)° C.
This spectroscopic handle can be used to determine the affinities of the inhibitors described in this proposal and to explore the mechanism of DPM-DC. […] As a tool to study mechanism, the DPM-induced fluorescence changes can monitor, by stopped-flow, the progress of the binding reactions. The concentration dependencies of such measurements yield microscopic rate constants, which, in turn, provide ground and transition-state energetics for a particular step in the reaction coordinate. In favorable cases, fluorescence changes occur subsequent to binding as consequence of other structural changes that occur during the catalytic cycle—such is the case with DPM-DC. These changes can be assigned to bond-cleavage steps using by monitoring chemistry in the presteady-state by quenched-flow.

Experiment [7] deals with T1, mevalonate kinase (MK). The conditions noted are these: read-out: Ki (binding to the allosteric site of mevalonate kinase); S. pneumoniae MK; background, Andreassi et al. 2004; cited from earlier work.
The next experiment concerns the target T5, rat liver DPM-DC (Rattus norvegicus, UniProt Q62967).
T5 construct: host or cells: rat liver
T5 sequence (Q62967 1-401): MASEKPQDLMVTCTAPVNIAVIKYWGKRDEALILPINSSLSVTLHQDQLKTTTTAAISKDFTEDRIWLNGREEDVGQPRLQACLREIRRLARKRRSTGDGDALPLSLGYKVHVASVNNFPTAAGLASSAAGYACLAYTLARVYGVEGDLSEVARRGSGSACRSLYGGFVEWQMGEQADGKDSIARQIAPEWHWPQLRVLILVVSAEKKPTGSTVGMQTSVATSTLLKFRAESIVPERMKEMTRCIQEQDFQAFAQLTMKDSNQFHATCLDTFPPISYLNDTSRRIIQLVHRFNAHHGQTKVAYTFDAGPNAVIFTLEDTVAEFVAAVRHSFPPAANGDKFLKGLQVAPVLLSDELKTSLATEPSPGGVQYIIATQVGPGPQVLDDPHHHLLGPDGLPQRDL
To be noted: cited from earlier work.

In experiment [8] the target is DPM-DC (Streptococcus pneumoniae, UniProt Q9FD53). The experiment is described as follows: Inhibition of S. pneumoniae DPM-DC. To be noted: DPM-DC from S. pneumoniae. In kind it is biochemical.
Chain of DPM-DC (Streptococcus pneumoniae, UniProt Q9FD53) (Q9FD53 entry or part of it): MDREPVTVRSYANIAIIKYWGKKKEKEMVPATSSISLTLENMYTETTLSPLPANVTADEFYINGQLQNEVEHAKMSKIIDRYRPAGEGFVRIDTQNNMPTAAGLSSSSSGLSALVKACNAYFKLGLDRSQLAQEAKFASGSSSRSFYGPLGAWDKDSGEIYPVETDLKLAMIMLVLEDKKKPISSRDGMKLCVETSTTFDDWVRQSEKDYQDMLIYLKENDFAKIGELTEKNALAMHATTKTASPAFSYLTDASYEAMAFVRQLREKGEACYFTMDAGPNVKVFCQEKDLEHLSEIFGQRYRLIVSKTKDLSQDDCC
Experiment [9] relates to S. pneumoniae (ATCC 49619, R6). The experiment is described as follows: Antibiotic test: broth culture, plated to assess viability. In kind it is cell-based, Streptococcus pneumoniae. The conditions noted are these: serial dilutions; 24 hours at 35° C.; ATCC 49619 or R6. The protocol: as §2, with “viability.” for “viability. The linear form of F3-mev had little effect; confluent growth was observed on all plates; in contrast, the lactone is clearly a bacteriocide—less than 0.0001% of either strain survived at 100-200 μg/ml of the lactone.”

The next experiment concerns the target T6, mevalonate kinase (Streptococcus pneumoniae, UniProt A0A0H2UNK6).
T6 sequence (A0A0H2UNK6 1-292): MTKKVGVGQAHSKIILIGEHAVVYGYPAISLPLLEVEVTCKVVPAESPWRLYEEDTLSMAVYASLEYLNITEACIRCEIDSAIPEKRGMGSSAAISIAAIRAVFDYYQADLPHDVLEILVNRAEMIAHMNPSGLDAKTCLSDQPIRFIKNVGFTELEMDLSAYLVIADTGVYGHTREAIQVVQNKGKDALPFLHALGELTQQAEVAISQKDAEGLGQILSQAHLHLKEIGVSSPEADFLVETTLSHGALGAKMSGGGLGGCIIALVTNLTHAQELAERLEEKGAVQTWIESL
The experiment is described as follows: Initial substrate results of analogues with mevalonate kinase (FIG. 8). In kind it is biochemical. The conditions noted are these: [ATP]=0.85 mM. As to the method:
FIG. 8. Initial substrate results [analogue] ranged from 2.0-2.5 mM, except #6 (4.2 mM) and #8 (6.2 mM).
A series of compounds related to compounds 4, 5, 23, and 25 can be synthesized as potential competitive or noncompetitive reversible inhibitors of MK and DPM-DC (See, e.g., FIGS. 6-7). The representative synthesis shown (Scheme 4a) is a modification of that shown in Scheme 4, and R is limited only by availability of the corresponding reagent and synthetic technique, as would be understood by those skilled in the art made aware of this invention (e.g., alkyl, vinyl, acetylenyl, aryl, heteroaryl, etc., via Grignard reaction with the corresponding magnesium bromide or chloride).

The next experiment deals with PMK. The conditions noted are these: producing 6-fluoroDPM; cited from earlier work.
Experiment [10] has as its target T4, DPM-DC. The conditions noted are these: cited from earlier work.
The subject of experiment [11] is incorporation of mevalonate into nonsaponifiable lipids. The conditions noted are these: rat liver extracts; relative to F3-mev; cited from earlier work.
The next experiment concerns MK. To be noted: producing 6-fluoroDPM; cited from earlier work.

One may read the Ki as the dissociation constant of the complex between target and ligand, obtained from inhibition or displacement. For orientation: Km means the concentration of substrate that gives half-maximal velocity. By Kd is commonly meant a measure of binding affinity in units of concentration. Read a high Kd as a looser complex.

Each structure is given as a SMILES string. “Also recorded” adds a separate entry of the source. Like-named read-outs stand apart in the source and are kept apart here.

T3 sequence (Q03426 whole entry): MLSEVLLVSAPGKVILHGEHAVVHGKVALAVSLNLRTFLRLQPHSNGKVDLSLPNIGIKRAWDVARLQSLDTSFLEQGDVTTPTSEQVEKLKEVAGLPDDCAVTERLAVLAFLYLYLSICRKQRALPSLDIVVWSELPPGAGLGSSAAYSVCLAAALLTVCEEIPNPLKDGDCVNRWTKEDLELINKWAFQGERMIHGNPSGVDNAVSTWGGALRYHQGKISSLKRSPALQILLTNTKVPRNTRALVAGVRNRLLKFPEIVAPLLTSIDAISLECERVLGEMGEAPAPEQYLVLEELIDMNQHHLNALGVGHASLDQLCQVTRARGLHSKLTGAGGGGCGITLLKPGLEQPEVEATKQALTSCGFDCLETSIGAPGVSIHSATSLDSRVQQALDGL

As to `C[C@@](O)(CCOP(=O)(O)OP(=O)(O)O)CC(=O)O` [DPM, Diphosphomevalonate], the figures for the Ki on mevalonate kinase (MK) [1] and at mevalonate kinase (MK) [7] were 500 nM and 400 nM, respectively. Besides, the “turnover reduced to” value on mevalonate kinase (MK) [1] (DPM bound to MK) was “less than 0.5%”. The “inhibition mechanism (initial-rate study)” value at mevalonate kinase (MK) [1] (vs substrates) is listed as “noncompetitively”. Moreover, in experiment [2], the Km was 15 µM. The Kd on mevalonate kinase (MK) [3] (Kd DPM, quoted for the NMR titration of MK) was determined as 500 nM; at mevalonate kinase (MK) [3] (affinity of DPM for apo (E) form of the enzyme, apo (E)), 630 nM; on mevalonate kinase (MK) [3] (affinity of DPM for ternary (E.AMPPNP.mev) form of the enzyme, ternary (E.AMPPNP.mev)), 530 nM; at DPM-DC [6], 540 nM. At mevalonate kinase (MK) [3] (enzyme is a dimer), this compound had a binding stoichiometry of 0.5 DPM/active site. Besides, the “effect of DPM on human mevalonate kinase isozyme” value on human mevalonate kinase [4] is given as “not affected”. The “effect of DPM on human MK” value on human mevalonate kinase [5] is given as “virtually unaffected; also recorded: insensitive”. The “change in the intrinsic fluorescence of DPM-DC” value at DPM-DC [6] (on binding of DPM) is 1.5 fold.

In the case of `O=C(O)CC(O)(CCOP(=O)(O)OP(=O)(O)O)C(F)(F)F` (stereo not drawn) [F3-DPM], the Ki on mevalonate kinase (MK) [1] (MK from S. pneumoniae, read-out: Ki (MK)) is 570 nM; at rat liver DPM-DC (rat liver), 500 nM; at DPM-DC [8] it was 50 nM.

`CCC(O)(CCOP(=O)(O)OP(=O)(O)O)CC(=O)O` (stereo not drawn) [compound 14]: the Km in [2] (read-out: Km) was 33 µM. Also, the “kcat relative to DPM” value in experiment [2] (that of DPM) is listed as 32%.

With `O=C(O)CC(O)(CCO)C(F)(F)F` (stereo not drawn) [linear form of F3-mev, 6,6,6-trifluoromevalonate], the “effect on viability (growth on plates)” value in experiment [9] is recorded as “little effect”.

As for `CC(O)(CCO)CC(=O)O` (stereo not drawn) [mevalonate], the kcat at mevalonate kinase turned out to be 227 s^1.

With `O=C(O)CC(O)(CF)CCO` (stereo not drawn) [mono-fluoro derivative, 6-Fluoromevalonic acid], the “substrate for PMK (in words)” value with PMK is given as “substrate”. Further, the “better inhibitor of DPM-DC (relative to F3 analogue)” value at rat liver DPM-DC (rat liver extracts) was 50 fold. Also, the decrease in turnover at DPM-DC [10] (mono-fluoro substitution at C6) is on record as 2500 fold. Moreover, the turnover at DPM-DC [10] (substrate of DPM-DC) is 0.19 min⁻¹. Also, the “turnover relative to the native compound” value at DPM-DC [10] (vs DPM) was 0.04%. The “more effective than F3-mev in inhibiting incorporation of mevalonate into nonsaponifiable lipids” value in [11] is given as 50 times. For the same compound, the “substrate for MK (in words)” value in the experiment on MK is on record as “substrate”.

These data come from patent publication US8710032B2, “Inhibitors of the mevalonate pathway of Streptococcus pneumoniae” (Northwestern University, priority 2006, dated 2014).
